Values quoted from earlier work as cited in US20110081416A1, “ORDERED MESOPOROUS SILICA MATERIAL” (FORMAC Pharmaceuticals N.V., priority 2008, published 2011).

Experiments:
[1] = not given; remark: listed apart in the source
[2] = Table 3, acids with a pKa of less than 2

Q: With `NC(=O)N1c2ccccc2C=Cc2ccccc21` [Carbamazepine, 5H-dibenz[b,f]azepine-5-carboxamide] as the molecule, how does the “solubility in alcohol and acetone (in words)” value (alcohol and acetone) read?
A: soluble

Q: What about the “solubility in water (in words)” value of the same molecule?
A: practically insoluble

Q: Which “increase in plasma concentration on doubling the dose” value ([1]; doubling the dose) does the source give for `C#C[C@]1(O)CC[C@H]2[C@@H]3CCC4=Cc5oncc5C[C@]4(C)[C@H]3CC[C@@]21C` [Danazol, 17a-Pregna-2,4-dien-20-yno[2,3-d]-isoxazol-17-ol] here?
A: 30-40%

Q: What about the half-life ([1]; in vivo) of the same molecule?
A: 4 to 5 h

Q: What about the “time of peak (plasma) concentrations” value ([1]; oral) of the same molecule?
A: ≤ 2 h

Q: With `CCC(C)n1ncn(-c2ccc(N3CCN(c4ccc(OCC5COC(Cn6cncn6)(c6ccc(Cl)cc6Cl)O5)cc4)CC3)cc2)c1=O` (stereo not shown) [Itraconazole] as the molecule, how does the “solubility in water (in words)” value read?
A: poorly soluble

Q: With `CC(=O)O[C@H]1C(=O)[C@@]2(C)[C@H]([C@H](OC(=O)c3ccccc3)[C@]3(O)C[C@H](OC(=O)[C@H](O)[C@@H](NC(=O)c4ccccc4)c4ccccc4)C(C)=C1C3(C)C)[C@]1(OC(C)=O)CO[C@@H]1C[C@@H]2O` [Paclitaxel] as the molecule, how does the “solubility in water (in words)” value read?
A: insoluble

Q: With `C=CC[C@@H]1/C=C(\C)C[C@H](C)C[C@H](OC)[C@H]2O[C@@](O)(C(=O)C(=O)N3CCCC[C@H]3C(=O)O[C@H](/C(C)=C/[C@@H]3CC[C@@H](O)[C@H](OC)C3)[C@H](C)[C@@H](O)CC1=O)[C@H](C)C[C@@H]2OC` [Tacrolimus] as the molecule, how does the absolute bioavailability ([1]; 5 mg dose taken twice a day) read?
A: approximately 17%

Q: And the “solubility in ethanol (in words)” value (ethanol)?
A: freely soluble

Q: What about the “solubility in methanol and chloroform (in words)” value (methanol and chloroform) of the same molecule?
A: very soluble

Q: And the “solubility in water (in words)” value?
A: practically insoluble

Q: For `O=S(=O)(O)NC1CCCCC1` [cyclamic acid], which pKa [2] is on record?
A: 1.90

Q: Which pKa [2] does the source give for `O=S(O)O` [sulfurous acid] here?
A: 1.81
